Results from patent US6878715B1, “Therapeutic compounds for inhibiting interleukin-12 signals and method for using same” (Cell Therapeutics, Inc., priority 1994, dated 2005).
Read-outs that look alike come from different tables or passages of the source.

Tests used:
[1] = tested on: IL-12 induced Th1 differentiation (splenic T cells); experiment: IL-12 dependent in vitro T-helper cell (Th1) differentiation assay, IFN-γ production upon secondary anti-CD3 stimulation; format: cell-based; details: read-out: IC50, inhibition of IL-12 induced Th1 differentiation as defined by IFN-γ production
Experimental: This example illustrates the inventive compounds' ability to suppress Th1 differentiation in vitro by blocking IL-12 signalling. Each of compounds A through Y were tested in an IL-12 dependent in vitro T-helper cell differentiation assay as described in LeGross et al., J. Exp. Med., 172:921-929 (1990). Recombinant IL-12 was used to induce Th1 differentiation. Spenic T cells were purified utilizing the antibodies RA3-3A1/6.1 (anti-B220), J11d and MAR18.5 (anti-rat kappa chain) to deplete the B cells via complement mediated toxicity following the procedure set forth in Klaus et al., J. Immunol., 149:1867-1875 (1992). Splenic T cells were stimulated at 5×10^5/ml with insoluble anti-CD3 alone (145-2C11, Pharmingen, San Diego, Calif.), or anti-CD3 and 5 U/ml IL-12, with and without each inventive compound. After seven days, equal numbers of viable cells were restimulated for 24 hours with anti-CD3 without the inventive compounds, and the supernatants were collected and assayed for IFN-γ production. IFN-γ and IL-4 levels were measured by Interest kits from Genzyme specific for IFN-γ and IL-4.
Th1 differentiation was induced by culturing anti-CD3 stimulated T cells in the presence of exogenous IL-12. […] The values in the “IC50 μM” column were determined by measuring the inhibition of IL-121 induced Th1 differentiation as defined by IFN-γ production upon secondary stimulation with anti-CD3 alone. None of the compounds affected the viability or recovery of T cells after one week of culture.

[2] = tested on: adoptive transfer EAE; experiment: Adoptive transfer experimental allergic encephalomyelitis (EAE) model; format: in vivo, mice; details: bid, by gavage, first 5 days; vs vehicle only; FIG. 2
Experimental: An adoptive transfer experimental allergic encephalomyelitis (EAE) model was used, in which the splenic T cells from actively immunized mice were cultured for 4 days in antigen-containing (myelin basic protein) medium. The cells were then transferred to naive recipients, which were then evaluated for clinical changes in motor nerve function in the presence or absence of treatment with LSF or the compound of Example 22 (CT11558). Both compounds were administered on a bid schedule, by gavage, for the first 5 days.

[3] = tested on: GVHD; experiment: Graft-versus-host disease (GVHD) model; format: in vivo; details: bid, by gavage, first 5 days; assessed over 36 days after adoptive transfer of cells; vs vehicle control; FIG. 3
Experimental: In a GVHD model, an irradiated F1 hybrid recipient population, bred across a parental major H2 mismatch, was infused with maternal cells activated in vitro with conconavalian A (Con A) and IL-12. LSF and the compound of Example 7 (CT12441) were compared with a vehicle control for efficacy. Both compounds were administered on a bid schedule, by gavage, for the first 5 days.

[4] = tested on: IL-12 induced IFN-γ secretion; experiment: IL-12 induced IFN-γ secretion (interferon gamma induction) assay in splenocyte culture; format: cell-based; details: compound added to a culture of splenocytes; FIG. 1
Experimental: The ability of IL-12 to induce generation of Th1 cells is aided by IFN-γ, a cytokine which is known to be induced by IL-12 itself. (R)-3-(N-biotinyl-6-aminohexyl)-1-(5-hydroxyhexyl)-7-methylxanthine (CT12460) and (R)-3-(N-biotinyl-2-aminoethyl)-1-(5-hydroxyhexyl)-7-methylxanthine (CT13410) were tested in an interferon gamma (IFN-γ) induction assay as described in Kobayashi, M., et al., “Identification and Purification of Natural Killer Cell Stimulatory Factor (NKSF), A Cytokine with Multiple Biologic Effects on Human Lymphocytes,” J. Exp. Med.U., 170:827-845 (at 829, 830 and 836) (1989). See also, Wolf, S., et al., “Interluekin 12: A Key Modulator of Immune Function,” Stem Cells, 12:154-168 (1994) and Trinchieri, supra.

[5] = splenic T cells, anti-CD3 and 5 U/ml IL-12, seven days with compound, restimulated 24 hours with anti-CD3 alone

Structure (SMILES) | IC50 [1, 5] | other results
C[C@@H](O)CCCCn1c(=O)n(C)c(=O)c2c1ncn2C [CT11495, (R)-3-(5-Hydroxyhexyl)-1,7-dimethylxanthine] | 35 µM | 
C[C@@H](O)CCCCn1c(=O)c2c([nH]c(=O)n2C)n(C)c1=O [CT11499, (R)-1-(5-Hydroxyhexyl)-3,7-dimethyluric acid] | 30 µM | 
C[C@H](CCCCn1c(=O)c2c(ncn2C)n(C)c1=O)N(C)C [CT11558, (R)-1-(5-N,N-dimethylaminohexyl)-3,7-dimethylxanthine] |  | magnitude of observable clinical deficits (motor nerve function) [2]: decrease in the magnitude; onset of observable clinical deficits (motor nerve function) [2]: significant delay in the onset
C[C@@H](O)CCCCn1c(=O)c2c(ncn2Cc2ccccc2)n(C)c1=O [CT12404] | 28 µM | 
Cc1nc2c(c(=O)n(CCCC[C@@H](C)O)c(=O)n2C)n1Cc1ccccc1 [CT12407, (R)-1-(5-hydroxyhexyl)-7-benzyl-3,8-dimethylxanthine] | 30 µM | 
CNc1nc2c([nH]1)c(=O)n(CCCC[C@@H](C)O)c(=O)n2C [CT12447, (R)-1-(5-hydroxyhexyl)-3-methyl-8-methylaminoxanthine] |  | IC50 [1]: 25 µM
C[C@@H](O)CCCCn1c(=O)c2[nH]c(=O)[nH]c2n(C)c1=O [CT12452, (R)-1-(5-hydroxyhexyl)-3-methyluric acid] |  | IC50 [1]: 35 µM
Cc1cn(C)c2c1c(=O)n(CCCC[C@@H](C)O)c(=O)n2C [CT12458, (R)-3-(5-Hydroxyhexyl)-1,7,9-dimethyl-2,4-pyrrolo[2,3-d]pyrimidinedione] | 27 µM | 
C[C@@H](O)CCCCn1c(=O)c2c(ncn2C)n(CCCCCCNC(=O)CCCC[C@@H]2SC[C@@H]3NC(=O)N[C@@H]32)c1=O [CT12460, (R)-3-(6-biotinylamidohexyl)-1-(5-hydroxyhexyl)-7-methylxanthine] | 21.8 µM | IL-12 induced IFN-γ secretion [4]: inhibited
C[C@@H](O)CCCCn1c(=O)c2[nH]nnc2n(C)c1=O [CT12463, (R)-1-(5-Hydroxyhexyl)-3-methyl-8-azaxanthine] | 31 µM | 
CNc1nc2c(c(=O)n(CCCC[C@@H](C)O)c(=O)n2C)n1C [CT12481, (R)-3,7-dimethyl-1-(5-hydroxyhexyl)-8-N-methylaminoxanthine] | 24.7 µM | 
C[C@@H](O)CCCCn1c(=O)c2c(ncn2C)n(CCNC(=O)CCCC[C@@H]2SC[C@@H]3NC(=O)N[C@@H]32)c1=O [CT13410, (R)-3-(6-biotinylamidoethyl)-1-(5-hydroxyhexyl)-7-methylxanthine] |  | IL-12 induced IFN-γ secretion [4]: inhibited
C[C@H](O)CCCCn1c(=O)c2c(nnn2C)n(C)c1=O [CT22464, (S)-3,7-Dimethyl-1-(5-hydroxyhexyl)-8-azaxanthine] | 30 µM | 
C[C@@H](O)CCCCn1c(=O)c2c(ncn2C)n(C)c1=O [LSF, (R)-1-(5-Hydroxyhexyl)-3,7-dimethylxanthine, reference compound] |  | magnitude of observable clinical deficits (motor nerve function) [2]: decrease in the magnitude; onset of observable clinical deficits (motor nerve function) [2]: significant delay in the onset; survival [3]: significant increase of survival

Second part, led by results:

IC50 [1, 5] | Structure (SMILES) | other results
21 µM | CC(CCCCn1c(=O)c2c(ncn2C)n(C)c1=O)NO (centres unmarked) [CT7549, 1-(5-(N-Hydroxy)aminohexyl)-3,7-dimethylxanthine] | 
19 µM | C[C@@H](O)CCCCn1c(=O)c2c(ncn2C)n(Cc2ccco2)c1=O [CT12422, (R)-3-(2-Furylmethyl)-1-(5-hydroxyhexyl)-7-methylxanthine] | 
9 µM | C[C@@H](O)CCCCn1c(=O)c2[nH]c(CN)nc2n(C)c1=O [CT12440, (R)-8-Aminomethyl-1-(5-hydroxyhexyl)-3-methylxanthine] | 
19 µM | CNCc1nc2c([nH]1)c(=O)n(CCCC[C@@H](C)O)c(=O)n2C [CT12441, (R)-1-(5-hydroxyhexyl)-3-methyl-8-(N-methyl)aminomethylxanthine] | survival [3]: significant increase of survival
17 µM | Cc1c[nH]c2c1c(=O)n(CCCC[C@@H](C)O)c(=O)n2C [CT12459, (R)-1,9-dimethyl-3-(5-hydroxyhexyl)-2,4-pyrrolo[2,3-d]pyrimidinedione] | 
17 µM | C[C@@H](O)CCCCn1c(=O)c2nsnc2n(C)c1=O [CT12461, (R)-3-(5-hydroxyhexyl)-1-methyl-[1,2,5]thiadiazolo[3,4]pyrimidine-2,4-dione] | 
12 µM | C[C@@H](O)CCCCn1c(=O)c2c(nnn2C)n(C)c1=O [CT12464, (R)-3,7-dimethyl-1-(5-hydroxyhexyl)-8-azaxanthine] | 
15 µM | C[C@@H](O)CCCCn1c(=O)c2nn(C)nc2n(C)c1=O [CT12465, (R)-3,8-Dimethyl-1-(5-hydroxyhexyl)-8-azaxanthine] | 
10 µM | C[C@@H](O)CCCCn1c(=O)c2c(nc(N(C)C)n2C)n(C)c1=O [CT12485, (R)-3,7-Dimethyl-8-N,N-dimethylamino-1-(5-hydroxyhexyl)-xanthine] | 
20 µM | CSc1nc2c([nH]1)c(=O)n(CCCC[C@@H](C)O)c(=O)n2C [CT12490, (R)-1-(5-Hydroxyhexyl)-3-methyl-8-methylsulfanylxanthine] | 
9 µM | C[C@H](CCCCn1c(=O)c2c(ncn2C)n(C)c1=O)OP(=O)(O)O [CT17557] | 
10 µM | C[C@H](O)CCCCn1c(=O)c2c(ncn2Cc2ccccc2)n(C)c1=O [CT22404, (S)-1-(5-Hydroxyhexyl)-7-benzyl-3-methylxanthine] | 
14 µM | C[C@H](O)CCCCn1c(=O)c2nn(C)nc2n(C)c1=O [CT22465, (S)-3,8-dimethyl-1-(5-hydroxyhexyl)-8-azaxanthine] | 
